Measured values: patent US11613546B2, “Substituted pyridotriazine compounds and uses thereof” (Gilead Sciences, Inc., priority 2021, dated 2023)
pEC50: −log10 of the molar value. Read-outs that look alike come from different tables or passages of the source.

Key:
Assay type in all cases: cell-based
[1] = Cytotoxicity assay in MT-4 cells; settings: human
Method: (§1) Compounds were tested in a high-throughput 384-well assay format for their ability to inhibit the replication of HIV-1 (IIIB) in MT-4 cells. Compounds were serially diluted (1:3) in DMSO on 384-well polypropylene plates and further diluted 200-fold into complete RPMI media (10% FBS, 1% P/S) using the Biotek Micro Flow and Labcyte ECHO acoustic dispenser. Each plate contained up to 8 test compounds, with negative (No Drug Control) and 5 μM AZT positive controls. MT-4 cells were pre-infected with 10 μL of either RPMI (mock-infected) or a fresh 1:250 dilution of HIV-1 IIIB concentrated virus stock. Infected and uninfected MT-4 cells were further diluted in complete RPMI media and added to each plate using a Micro Flow dispenser. After 5 days incubation in a humidified and temperature controlled incubator (37° C.), Cell Titer Glo (Promega) was added to the assay plates and chemiluminescence read using an Envision plate-reader. EC50 values were defined as the compound concentration that causes a 50% decrease in luminescence signal, and were calculated using a sigmoidal dose-response model to generate curve fits. Cytotoxicity Assay in MT-4 Cells Assays were performed as above except uninfected MT-4 cells were added to each well containing test compound. In addition, 10 μM puromycin was added to the last column of each assay plate to assess a base level of cytotoxicity.

pLai RLuc reporter virus = experiment: HIV MT-4 serum shift antiviral reporter assay; settings: Human immunodeficiency virus 1, 72 h
Method: To quantify the amount of protein binding to human serum, compounds were serially diluted (1:3) in DMSO and acoustically transferred onto 384-well assay plates via a Labcyte ECHO robot. Each plate contained up to 8 test compounds, including negative and positive controls, (DMSO, 5 μM AZT respectively). Assay plates were prepared in duplicate, and tested in either CCM (cell culture media) or HS/CCM (human serum/cell culture media). MT-4 cells were first pre-infected with pLai RLuc reporter virus for 2 h at 37° C., then further diluted in either CCM (RPMI media, 10% FBS, 1% P/S) or HS/CCM (RPMI media, 10% FBS, 50% HS, 1% P/S), and subsequently added to each plate using a Biotek Micro Flow dispenser. After a 72-h incubation in a humidified and temperature controlled incubator (37° C.), Renilla Glo (Promega) was added to all assay plates and chemiluminescence read using an Envision plate-reader. EC50 values were defined as the compound concentration that causes a 50% decrease in luminescence signal, and were calculated using a sigmoidal dose-response model to generate curve fits. To determine the amount of protein binding, EC50 fold shifts (or EC50 shifts) were calculated by dividing EC50 (HS/CCM)/EC50 (CCM).

HIV-1 (IIIB) = experiment: Antiviral assay in MT-4 cells; settings: Human immunodeficiency virus 1, IIIB, MT4, 120 h, HIV-1 IIIB infected MT-4 cells, 5 days, Cell Titer Glo; read-out: MT4 EC50
Method: Antiviral Assay in MT-4 Cells
as §1, with “fits.” for “fits. Cytotoxicity Assay in MT-4 Cells Assays were performed as above except uninfected MT-4 cells were added to each well containing test compound. In addition, 10 μM puromycin was added to the last column of each assay plate to assess a base level of cytotoxicity.”

[2] = uninfected MT-4 cells, 5 days, Cell Titer Glo, read-out: CC50
[3] = read-out: RLUC 50% HS (nM), HS/CCM: 50% human serum, 72 h, Renilla Glo
[4] = read-out: RLUC CCM (nM), cell culture media (RPMI, 10% FBS), 72 h, Renilla Glo

Row | Structure (SMILES) | CC50 at 5 days [1, 2] [nM] | EC50 (pLai RLuc reporter virus; [3]) [nM] | EC50 (pLai RLuc reporter virus; [4]) [nM] | pEC50 (HIV-1 (IIIB)) | CC50 at 5 days ([1]; CC50 (nM)) [nM]
1 | C[C@H]1C=CCN2CN1C(=O)c1c(O)c(=O)c(C(=O)NCc3c(F)cc(F)cc3F)cn12 [Example C5, (10S)-6-hydroxy-10-methyl-5,8-dioxo-N-[(2,4,6-trifluorophenyl)methyl]-1,2,9-triazatricyclo[7.4.1.02,7]tetradeca-3,6,11-triene-4-carboxamide] | 14200 | 40.4 | 0.42 | 8.47 | –
2 | O=C(NCc1c(F)cc(F)cc1F)c1cn2c(c(O)c1=O)C(=O)N1CCCCN2C1Cc1ccccc1 (stereo not drawn) [Example C6, 13-benzyl-8-hydroxy-7,9-dioxo-N-(2,4,6-trifluorobenzyl)-2,3,4,5,7,9-hexahydro-1,6-methanopyrido[1,2-b][1,2,5]triazonine-10-carboxamide] | 9880 | 23.1 | 3.5 | 8.12 | –
3 | C[C@H]1C=CC2(COC(C)(C)C2)N2CN1C(=O)c1c(O)c(=O)c(C(=O)NCc3c(F)cc(F)cc3F)cn12 (stereo partly drawn) [Example C9, (1′S,5′S)-8′-hydroxy-5,5,5′-trimethyl-7′,9′-dioxo-N-(2,4,6-trifluorobenzyl)-4,5,7′,9′-tetrahydro-2H,5′H-spiro[furan-3,2′-[1,6]methanopyrido[1,2-b][1,2,5]triazonine]-10′-carboxamide] | – | – | – | – | 25300
4 | C[C@@H]1C/C=C\[C@H](C)N2CN1n1cc(C(=O)NCc3c(F)cc(F)cc3F)c(=O)c(O)c1C2=O [Example C12, (1R,2S,6R,Z)-9-hydroxy-2,6-dimethyl-8,10-dioxo-N-(2,4,6-trifluorobenzyl)-3,6,8,10-tetrahydro-2H-1,7-methanopyrido[1,2-b][1,2,5]triazecine-11-carboxamide] | 10800 | 273 | 0.77 | 8.47 | –
5 | C[C@@H]1CCCCN2CN1n1cc(C(=O)NCc3ccc(F)cc3F)c(=O)c(O)c1C2=O [Example C13, (1S,2R)—N-(2,4-difluorobenzyl)-9-hydroxy-2-methyl-8,10-dioxo-3,4,5,6,8,10-hexahydro-2H-1,7-methanopyrido[1,2-b][1,2,5]triazecine-11-carboxamide] | 8870 | 4.07 | 0.25 | 8.89 | –
6 | C[C@@H]1C/C=C\CN2CN1n1cc(C(=O)NCc3c(F)cc(F)cc3F)c(=O)c(O)c1C2=O [Example C16, (1S,2R,Z)-9-hydroxy-2-methyl-8,10-dioxo-N-(2,4,6-trifluorobenzyl)-3,6,8,10-tetrahydro-2H-1,7-methanopyrido[1,2-b][1,2,5]triazecine-11-carboxamide] | 11400 | 19.4 | 0.32 | 8.96 | –
7 | C[C@@H]1CCCCN2CN1n1cc(C(=O)NCc3c(F)cc(F)cc3F)c(=O)c(O)c1C2=O [Example C17, (1S,2R)-9-hydroxy-2-methyl-8,10-dioxo-N-(2,4,6-trifluorobenzyl)-3,4,5,6,8,10-hexahydro-2H-1,7-methanopyrido[1,2-b][1,2,5]triazecine-11-carboxamide] | 11200 | 7.12 | 0.16 | 9.04 | –
8 | C[C@@H]1CCC[C@@H](C)N2CN1C(=O)c1c(O)c(=O)c(C(=O)NCc3c(F)cc(F)cc3F)cn12 [Example C22, (1S,2R,6R)-9-hydroxy-2,6-dimethyl-8,10-dioxo-N-(2,4,6-trifluorobenzyl)-3,4,5,6,8,10-hexahydro-2H-1,7-methanopyrido[1,2-b][1,2,5]triazecine-11-carboxamide] | 16300 | – | – | 8.66 | –
9 | CO[C@@H]1[C@H](OC)[C@@H](C)N2CN(C(=O)c3c(O)c(=O)c(C(=O)NCc4c(F)cc(F)cc4F)cn32)[C@H]1C [Example C32, (1S,2R,3R,4S,5S)-8-hydroxy-3,4-dimethoxy-2,5-dimethyl-7,9-dioxo-N-(2,4,6-trifluorobenzyl)-2,3,4,5,7,9-hexahydro-1,6-methanopyrido[1,2-b][1,2,5]triazonine-10-carboxamide] | 28000 | 1.04 | 0.55 | 8.62 | –
10 | CO[C@@H]1C[C@@H](C)N2CN(C(=O)c3c(O)c(=O)c(C(=O)NCc4c(F)cc(F)cc4F)cn32)[C@H]1C [Example C33, (1S,2R,4R,5S)-8-hydroxy-4-methoxy-2,5-dimethyl-7,9-dioxo-N-(2,4,6-trifluorobenzyl)-2,3,4,5,7,9-hexahydro-1,6-methanopyrido[1,2-b][1,2,5]triazonine-10-carboxamide] | 32900 | 4.3 | 1.8 | 8.40 | –
11 | C[C@@H]1C[C@H](F)[C@H](C)N2CN1n1cc(C(=O)NCc3c(F)cc(F)cc3F)c(=O)c(O)c1C2=O [Example C34, (1S,2R,4S,5S)-4-fluoro-8-hydroxy-2,5-dimethyl-7,9-dioxo-N-(2,4,6-trifluorobenzyl)-2,3,4,5,7,9-hexahydro-1,6-methanopyrido[1,2-b][1,2,5]triazonine-10-carboxamide] | 8360 | 938 | 0.59 | 8.85 | –
12 | CO[C@H]1C[C@@H](C)N2CN(C[C@H]1OC)C(=O)c1c(O)c(=O)c(C(=O)NCc3ccc(F)cc3F)cn12 [Example C39, (1S,2R,4S,5R)—N-(2,4-difluorobenzyl)-9-hydroxy-4,5-dimethoxy-2-methyl-8,10-dioxo-3,4,5,6,8,10-hexahydro-2H-1,7-methanopyrido[1,2-b][1,2,5]triazecine-11-carboxamide] | 20300 | 4.7 | 0.93 | 8.46 | –
13 | C[C@H]1CC[C@@H](CF)N2CN1C(=O)c1c(O)c(=O)c(C(=O)NCc3ccc(F)cc3F)cn12 [Example C45, (1S,2S,5S)—N-(2,4-difluorobenzyl)-2-(fluoromethyl)-8-hydroxy-5-methyl-7,9-dioxo-2,3,4,5,7,9-hexahydro-1,6-methanopyrido[1,2-b][1,2,5]triazonine-10-carboxamide] | 11000 | – | – | 8.74 | –
14 | C[C@H]1CCC(C)(C)N2CN1C(=O)c1c(O)c(=O)c(C(=O)NCc3c(F)cc(F)cc3F)cn12 [Example C87, (1S,5S)-8-hydroxy-2,2,5-trimethyl-7,9-dioxo-N-(2,4,6-trifluorobenzyl)-2,3,4,5,7,9-hexahydro-1,6-methanopyrido[1,2-b][1,2,5]triazonine-10-carboxamide] | – | 198 | 0.68 | – | –
15 | CC1N2C(=O)c3c(O)c(=O)c(C(=O)NCc4c(F)cc(F)cc4F)cn3N1[C@H](C)C=C[C@@H]2C (stereo partly drawn) [Example C100, (1S,2R,5S)-8-hydroxy-2,5,13-trimethyl-7,9-dioxo-N-(2,4,6-trifluorobenzyl)-2,5,7,9-tetrahydro-1,6-methanopyrido[1,2-b][1,2,5]triazonine-10-carboxamide] | 16200 | – | – | 9.10 | –
16 | CCC1N2C(=O)c3c(O)c(=O)c(C(=O)NCc4c(F)cc(F)cc4F)cn3N1[C@H](C)C=C[C@@H]2C (stereo partly drawn) [Example C101, (1S,2R,5S)-13-ethyl-8-hydroxy-2,5-dimethyl-7,9-dioxo-N-(2,4,6-trifluorobenzyl)-2,5,7,9-tetrahydro-1,6-methanopyrido[1,2-b][1,2,5]triazonine-10-carboxamide] | 33500 | – | – | 7.71 | –
